Source: PubChem BioAssay AID256 (DTP/NCI, 2004)
Where “and” joins values, the source holds several entries; their conditions need not be identical. Identical values can stand only once. Inconclusive results and toxic doses are left out. Rule for the calls: active = survival T/C of 150% or more; inactive = T/C below 125% in these data.

System: CD2F1 mice, L1210 leukemia ip, survival T/C
Assay: NCI In Vivo Anticancer Drug Screen. Data for tumor model L1210 Leukemia (intraperitoneal) in CD2F1 (CDF1) mice
Settings: endpoint: mean survival time, higher = longer survival
Summary of the method: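 Vehicle-treated tumor-bearing mice served as controls (C) for compound-treated mice (T). Reported figure is T divided by C.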

[1] = dose: 100.0 mg/kg/injection, schedule: Q01DX001 (ip), vehicle: saline with Tween-80
[2] = dose: 400.0 mg/kg/injection, schedule: Q01DX001 (ip), vehicle: saline with Tween-80
[3] = dose: 50.0 mg/kg/injection, schedule: Q04DX002 (ip), vehicle: saline with Tween-80
[4] = dose: 100.0 mg/kg/injection, schedule: Q04DX002 (ip), vehicle: saline with Tween-80
[5] = dose: 200.0 mg/kg/injection, schedule: Q04DX002 (ip), vehicle: saline with Tween-80
[6] = dose: 100.0 mg/kg/injection, schedule: Q01DX009 (ip), vehicle: saline with Tween-80
[7] = dose: 100.0 mg/kg/injection, schedule: Q04DX003 (ip), vehicle: saline with Tween-80
[8] = dose: 200.0 mg/kg/injection, schedule: Q01DX009 (ip), vehicle: saline with Tween-80
[9] = dose: 200.0 mg/kg/injection, schedule: Q04DX003 (ip), vehicle: saline with Tween-80
[10] = dose: 400.0 mg/kg/injection, schedule: Q01DX009 (ip), vehicle: saline with Tween-80
[11] = dose: 400.0 mg/kg/injection, schedule: Q04DX003 (ip), vehicle: saline with Tween-80
[12] = dose: 100.0 mg/kg/injection, schedule: Q04DX003 (ip), vehicle: saline
[13] = dose: 200.0 mg/kg/injection, schedule: Q04DX003 (ip), vehicle: saline
[14] = dose: 400.0 mg/kg/injection, schedule: Q04DX003 (ip), vehicle: saline
[15] = dose: 50.0 mg/kg/injection, schedule: Q01DX009 (ip), vehicle: Klucel (hydroxypropylcellulose) (HPC)
[16] = dose: 100.0 mg/kg/injection, schedule: Q01DX009 (ip), vehicle: Klucel (hydroxypropylcellulose) (HPC)
[17] = dose: 200.0 mg/kg/injection, schedule: Q01DX009 (ip), vehicle: Klucel (hydroxypropylcellulose) (HPC)
[18] = dose: 25.0 mg/kg/injection, schedule: Q01DX009 (ip), vehicle: saline with Tween-80
[19] = dose: 50.0 mg/kg/injection, schedule: Q01DX009 (ip), vehicle: saline with Tween-80
[20] = dose: 400.0 mg/kg/injection, schedule: Q04DX002 (ip), vehicle: saline with Tween-80

Measured: T/C

CCCOS(=O)(=O)O
inactive: dose: 100.0 mg/kg/injection, schedule: Q01DX001 (ip), vehicle: saline 106 % of control | dose: 200.0 mg/kg/injection, schedule: Q01DX001 (ip), vehicle: saline 102 % of control | dose: 400.0 mg/kg/injection, schedule: Q01DX001 (ip), vehicle: saline 106 % of control

CNC(=O)/C(=C\c1ccccc1Cl)NC(C)=O
inactive: [1] 97 % of control | dose: 200.0 mg/kg/injection, schedule: Q01DX001 (ip), vehicle: saline with Tween-80 93 % of control | [2] 93 % of control

CC(C)CCCC(C)C1CCC2C3CCC4CC(OCN5CCCCC5)CCC4(C)C3CCC12C (stereo not given)
inactive: dose: 100.0 mg/kg/injection, schedule: Q04DX003 (ip), vehicle: Klucel (hydroxypropylcellulose) (HPC) 95 % of control | dose: 200.0 mg/kg/injection, schedule: Q04DX003 (ip), vehicle: Klucel (hydroxypropylcellulose) (HPC) 92 % of control | dose: 400.0 mg/kg/injection, schedule: Q04DX003 (ip), vehicle: Klucel (hydroxypropylcellulose) (HPC) 92 % of control

CC(C)(C)c1cc(N)cc(C(C)(C)C)c1O
inactive: [3] 91 % of control | [4] 98 % of control | [5] 98 % of control

COC(=O)c1cc(C)[nH]c(=O)c1C#N
inactive: [6] 100 % of control | [7] 95 % of control | [8] 100 % of control | [9] 98 % of control | [10] 94 % of control | [11] 96 % of control

CC(=O)CC(=O)N1CCN(C(=O)CC(C)=O)CC1
inactive: [12] 98 % of control | [13] 96 % of control | [14] 98 % of control

O=C1C(=O)N(CNC(c2ccccc2)c2ccccc2)c2ccccc21
inactive: [1] 101 % of control | [2] 86 % of control

CC(=O)OC1COCOC1C1OCOCC1OC(C)=O (stereo not given)
inactive: [15] 102 % of control | [16] 102 % of control | [17] 110 % of control

COC1CCC(/C=C(\C#N)C2CCC(C)CC2)CC1 (stereo not given)
inactive: [18] 93 % of control | [19] 91 % of control | [6] 90 % of control and 93 % of control | [10] 92 % of control

COC(C)C(O)(c1ccccc1)c1ccccc1 (stereo not given)
inactive: [19] 101 % of control | [6] 101 % of control | [8] 96 % of control

CC(CCOP(N)(=O)N(CCCl)CCCl)OCc1ccccc1 (stereo not given)
inactive: dose: 25.0 mg/kg/injection, schedule: Q01DX001 (ip), vehicle: other 98 % of control | dose: 50.0 mg/kg/injection, schedule: Q01DX001 (ip), vehicle: other 101 % of control | dose: 100.0 mg/kg/injection, schedule: Q01DX001 (ip), vehicle: other 106 % of control | dose: 200.0 mg/kg/injection, schedule: Q01DX001 (ip), vehicle: other 115 % of control | dose: 500.0 mg/kg/injection, schedule: Q01DX001 (ip), vehicle: other 118 % of control

N/C(=N\O)c1ccccc1
inactive: [19] 103 % of control | [6] 98 % of control | [8] 90 % of control

O=C(C[n+]1cccc(C(=O)Nc2ccc(Cl)cc2)c1)NCc1ccccc1
inactive: [12] 97 % of control | [13] 94 % of control | [14] 102 % of control

O=C(Nc1ccccc1)Oc1c(Cl)cc(Cl)c2ccccc12
inactive: [4] 88 % of control | [5] 88 % of control | [20] 88 % of control

CCN(CC)S(=O)(=O)c1ccccc1
inactive: [15] 93 % of control | [16] 104 % of control | [17] 96 % of control

Cc1ccc(NC(=O)Oc2ccccc2F)cc1C
inactive: [19] 100 % of control | [6] 87 % of control | [8] 104 % of control

COC1=C(OC)C(=O)C(SCCCc2ccccc2)=CC1=O
inactive: dose: 6.25 mg/kg/injection, schedule: Q01DX009 (ip), vehicle: saline with Tween-80 98 % of control | dose: 12.5 mg/kg/injection, schedule: Q01DX009 (ip), vehicle: saline with Tween-80 102 % of control | [18] 93 % of control

CCOC(=O)/C=C/C1=CCCCC1
inactive: [19] 101 % of control | [6] 96 % of control | [8] 108 % of control

CCCCCCCCCOc1ccc(Cl)cc1
inactive: dose: 25.0 mg/kg/injection, schedule: Q04DX002 (ip), vehicle: saline with Tween-80 95 % of control | [3] 100 % of control | [4] 90 % of control and 95 % of control | [20] 93 % of control

CCOC(=O)Nc1cc(NCc2ccccc2)c([N+](=O)[O-])c(N)n1
inactive: dose: 12.5 mg/kg/injection, schedule: Q01DX001 (ip), vehicle: Klucel (hydroxypropylcellulose) (HPC) 109 % of control | dose: 25.0 mg/kg/injection, schedule: Q01DX001 (ip), vehicle: Klucel (hydroxypropylcellulose) (HPC) 101 % of control | dose: 50.0 mg/kg/injection, schedule: Q01DX001 (ip), vehicle: Klucel (hydroxypropylcellulose) (HPC) 91 % of control

C[n+]1cccc(C(=S)[S-])c1
inactive: [18] 102 % of control | [19] 101 % of control | [7] 101 % of control

C=NNC(=O)c1ccncc1
inactive: [6] 100 % of control | [8] 101 % of control | [10] 95 % of control

NC1CCC(=O)NC1c1ccccc1 (stereo not given)
inactive: dose: 100.0 mg/kg/injection, schedule: Q04DX002 (ip), vehicle: saline 97 % of control | dose: 200.0 mg/kg/injection, schedule: Q04DX002 (ip), vehicle: saline 101 % of control | dose: 400.0 mg/kg/injection, schedule: Q04DX002 (ip), vehicle: saline 101 % of control

O=C(O)C[As](=O)(O)O
inactive: dose: 15.0 mg/kg/injection, schedule: Q01DX009 (ip), vehicle: saline 100 % of control | dose: 30.0 mg/kg/injection, schedule: Q01DX009 (ip), vehicle: saline 108 % of control | dose: 60.0 mg/kg/injection, schedule: Q01DX009 (ip), vehicle: saline 91 % of control

CC(=O)Nc1ncc([N+](=O)[O-])s1
inactive: dose: 50.0 mg/kg/injection, schedule: Q04DX003 (ip), vehicle: saline with Tween-80 100 % of control | [7] 105 % of control | [9] 100 % of control

[C-]#[N+]C(C)(CC)c1ccccc1 (stereo not given)
inactive: dose: 35.0 mg/kg/injection, schedule: Q01DX009 (ip), vehicle: saline with Tween-80 105 % of control

N#CC12C(=N)CCC1C1CC2C2C3C=CC(C3)C12 (stereo not given)
inactive: [7] 96 % of control | [9] 96 % of control | [11] 95 % of control
